Reference: US6048853A, “1-arylphthalazine antagonists of excitatory amino acid receptors” (Bearsden Bio, Inc., priority 1996, dated 2000)
Where two headings read alike, the source gives them in different places.

Experiments:
[1] = test system: Male NIH Swiss mice; assay: Maximum Electro Shock (MES) Seizure Test; assay type: in vivo
Experimental: This test is to determine the extent of protection by a test compound in a seizure model. This model is described by Rogawski et al. (Epilepsy Research, 15:179-184, 1993). Male NIH Swiss mice (25-30 g) were injected ip with the test drug. […] Animals failing to show tonic hind limb extension were scored as protected. Compounds may be selected which are active in this model.
The results of this assay using compounds prepared as described in Examples 49, 50 and 102 are shown below in Table 2.

[2] = test system: Mice; assay: Subcutaneous Metrazol (scMET) Seizure Test; assay type: in vivo; conditions: dose 3 mg/kg; time 0.5 hr; Metrazol 90 mg/kg sc
Experimental: This test is to determine the extent of protection by a test compound in a seizure model. The method used is that of Chen et al. (Proc. Soc. Exp. Biol. Med., 87:334, 1954). Mice are randomly assigned to vehicle or treatment groups of 3-10 animals per group and then dosed accordingly. Metrazol (pentylenetetrazol) 90 mg/kg is administered subcutaneously (sc) at different time points (0.25, 0.5, 1, 2, 4 hr) after the treatment or control groups. The mice individually housed in clear runs and observed for the presence or absence of clonic seizure activity (>5 s duration) for 30 min after metrazol dosing. A compound is considered active if no seizure is observed. Data is analyzed using aquantal measure (protection/number tested).
The results of this assay using compounds prepared as described in Examples 49 and 50 are shown below in Table 3.

[3] = test system: rat; conditions: cited from earlier work
[4] = test system: rat; conditions: compared with NBQX; cited from earlier work

Nc1ccc(-c2nncc3cc4c(cc23)OCO4)cc1 [Example 49, 1-(4-Aminophenyl)-6,7-methylendioxyphthalazine]
MES Score (protected/no. tested) ([1]; dose 3 mg/kg ip, time 0.5 hours): 1/1
MES Score (protected/no. tested) ([1]; dose 15 mg/kg ip, time 2 hours): 2/4
scMET Score (protect./no. tested) [2]: 1/5

Cc1nnc(-c2ccc(N)cc2)c2cc3c(cc12)OCO3 [Example 50, 4-(4-Aminophenyl)-1-methyl-6,7-methylenedioxyphthalazine]
MES Score (protected/no. tested) ([1]; dose 1 mg/kg ip, time 4 hours): 1/7
scMET Score (protect./no. tested) [2]: 1/5

CC(=O)Nc1ccc(-c2nnc(C)c3cc4c(cc23)OCO4)cc1 [Example 102, 4-(4-acetylaminophenyl)-1-methyl-6,7-methylenedioxyphthalazine]
MES Score (protected/no. tested) ([1]; dose 100 mg/kg ip, time 4 hours): 3/3

CC1=NN=C(c2ccc(N)cc2)c2cc3c(cc2C1)OCO3 [GYKI 52466]
reduction of cortical infarct volume ([3]; given continuously for 2 hours just after occlusion): 68%
reduction of cortical infarct volume ([3]; given one hour after occlusion): 48%
efficacy in global ischemia model [4]: as effective as the glutamate site competitive antagonist NBQX
